Measured values: ChEMBL document CHEMBL4507300 (2021)

Columns and labels:
Histamine H1 receptor = Histamine H1 receptor (Homo sapiens, UniProt P35367); experiment: GPCRScan assay: inhibition of H1; design: radioligand conc. used [nm] 0.6 – 2.0, parental cells stable HEK
[1] = tested on: Tyrosine-protein kinase ABL1 (Homo sapiens), P00519 [Q252H]; conditions: Compound concentration 1000.0 nM
[2] = molecular target: RAC-gamma serine/threonine-protein kinase (Homo sapiens) (UniProt Q9Y243); conditions: Compound concentration 1000.0 nM
RAC-gamma serine/threonine-protein kinase (Homo sapiens), sequence (Q9Y243 whole entry): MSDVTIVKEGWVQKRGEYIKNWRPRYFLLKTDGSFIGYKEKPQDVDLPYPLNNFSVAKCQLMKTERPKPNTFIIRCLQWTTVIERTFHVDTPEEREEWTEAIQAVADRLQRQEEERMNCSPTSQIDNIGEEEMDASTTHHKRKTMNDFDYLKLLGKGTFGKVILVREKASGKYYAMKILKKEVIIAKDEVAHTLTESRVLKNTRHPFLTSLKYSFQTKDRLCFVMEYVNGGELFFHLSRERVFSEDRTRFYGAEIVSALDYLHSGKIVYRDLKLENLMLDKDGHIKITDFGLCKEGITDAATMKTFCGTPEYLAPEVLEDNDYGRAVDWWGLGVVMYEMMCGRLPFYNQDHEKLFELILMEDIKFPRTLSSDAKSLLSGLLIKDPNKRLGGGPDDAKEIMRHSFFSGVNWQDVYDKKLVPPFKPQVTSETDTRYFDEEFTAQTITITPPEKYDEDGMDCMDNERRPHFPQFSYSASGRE

[3] = molecular target: Mitogen-activated protein kinase kinase kinase 5 (Homo sapiens) (UniProt Q99683); conditions: Compound concentration 1000.0 nM
[4] = molecular target: Aurora kinase B (Homo sapiens) (UniProt Q96GD4); conditions: Compound concentration 1000.0 nM
[5] = molecular target: Bone morphogenetic protein receptor type-2 (Homo sapiens) (UniProt Q13873); conditions: Compound concentration 1000.0 nM
[6] = molecular target: Calcium/calmodulin-dependent protein kinase type 1 (Homo sapiens) (UniProt Q14012); conditions: Compound concentration 1000.0 nM
[7] = molecular target: Calcium/calmodulin-dependent protein kinase type 1B (Homo sapiens) (UniProt Q6P2M8); conditions: Compound concentration 1000.0 nM
Calcium/calmodulin-dependent protein kinase type 1B (Homo sapiens), sequence (Q6P2M8 whole entry): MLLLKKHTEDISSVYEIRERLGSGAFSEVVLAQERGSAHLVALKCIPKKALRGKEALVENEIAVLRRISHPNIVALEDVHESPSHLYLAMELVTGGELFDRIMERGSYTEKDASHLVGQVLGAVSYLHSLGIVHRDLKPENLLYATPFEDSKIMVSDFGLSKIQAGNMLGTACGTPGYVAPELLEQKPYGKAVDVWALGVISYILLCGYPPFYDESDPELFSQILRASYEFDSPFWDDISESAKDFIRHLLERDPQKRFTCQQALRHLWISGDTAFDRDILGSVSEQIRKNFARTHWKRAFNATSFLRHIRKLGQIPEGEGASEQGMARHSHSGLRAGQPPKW

[8] = molecular target: Calcium/calmodulin-dependent protein kinase type 1G (Homo sapiens) (UniProt Q96NX5); conditions: Compound concentration 1000.0 nM
[9] = molecular target: Calcium/calmodulin-dependent protein kinase type II subunit gamma (Homo sapiens) (UniProt Q13555); conditions: Compound concentration 1000.0 nM
Calcium/calmodulin-dependent protein kinase type II subunit gamma (Homo sapiens), sequence (Q13555 whole entry): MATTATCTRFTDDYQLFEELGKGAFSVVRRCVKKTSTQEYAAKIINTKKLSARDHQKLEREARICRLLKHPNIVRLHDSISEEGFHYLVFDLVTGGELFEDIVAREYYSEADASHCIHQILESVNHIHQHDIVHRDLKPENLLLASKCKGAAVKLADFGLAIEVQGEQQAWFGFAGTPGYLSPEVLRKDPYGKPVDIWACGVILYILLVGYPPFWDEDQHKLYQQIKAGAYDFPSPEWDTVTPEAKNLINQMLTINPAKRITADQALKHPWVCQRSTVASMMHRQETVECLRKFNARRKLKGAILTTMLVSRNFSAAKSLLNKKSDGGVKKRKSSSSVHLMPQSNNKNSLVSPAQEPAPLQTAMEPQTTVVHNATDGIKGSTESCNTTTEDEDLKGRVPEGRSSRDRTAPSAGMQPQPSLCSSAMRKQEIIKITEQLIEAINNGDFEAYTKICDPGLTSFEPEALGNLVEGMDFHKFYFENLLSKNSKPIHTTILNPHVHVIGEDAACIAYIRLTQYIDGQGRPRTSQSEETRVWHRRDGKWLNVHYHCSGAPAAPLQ

[10] = molecular target: Calcium/calmodulin-dependent protein kinase kinase 1 (Homo sapiens) (UniProt Q8N5S9); conditions: Compound concentration 1000.0 nM
[11] = molecular target: Cyclin-dependent kinase 11A (Homo sapiens) (UniProt Q9UQ88); conditions: Compound concentration 1000.0 nM
[12] = molecular target: Dual specificity protein kinase CLK1 (Homo sapiens) (UniProt P49759); conditions: Compound concentration 1000.0 nM
[13] = molecular target: Casein kinase I isoform gamma-3 (Homo sapiens) (UniProt Q9Y6M4); conditions: Compound concentration 1000.0 nM
[14] = molecular target: Myotonin-protein kinase (Homo sapiens) (UniProt Q09013); conditions: Compound concentration 1000.0 nM
[15] = molecular target: Serine/threonine-protein kinase 17B (Homo sapiens) (UniProt O94768); conditions: Compound concentration 1000.0 nM
[16] = tested on: Epidermal growth factor receptor (Homo sapiens), P00533 [UNDEFINED MUTATION]; conditions: Compound concentration 1000.0 nM
[17] = tested on: Epidermal growth factor receptor (Homo sapiens), P00533 [L861Q]; conditions: Compound concentration 1000.0 nM
[18] = molecular target: Ephrin type-A receptor 5 (Homo sapiens) (UniProt P54756); conditions: Compound concentration 1000.0 nM
[19] = molecular target: Vascular endothelial growth factor receptor 3 (Homo sapiens) (UniProt P35916); conditions: Compound concentration 1000.0 nM
[20] = molecular target: Cyclin-G-associated kinase (Homo sapiens) (UniProt O14976); conditions: Compound concentration 1000.0 nM
[21] = molecular target: Beta-adrenergic receptor kinase 1 (Homo sapiens) (UniProt P25098); conditions: Compound concentration 1000.0 nM
[22] = molecular target: G protein-coupled receptor kinase 3 (Homo sapiens) (UniProt P35626); conditions: Compound concentration 1000.0 nM
[23] = molecular target: Interleukin-1 receptor-associated kinase 4 (Homo sapiens) (UniProt Q9NWZ3); conditions: Compound concentration 1000.0 nM
[24] = molecular target: Mitogen-activated protein kinase 10 (Homo sapiens) (UniProt P53779); conditions: Compound concentration 1000.0 nM
Mitogen-activated protein kinase 10 (Homo sapiens), sequence (P53779 whole entry): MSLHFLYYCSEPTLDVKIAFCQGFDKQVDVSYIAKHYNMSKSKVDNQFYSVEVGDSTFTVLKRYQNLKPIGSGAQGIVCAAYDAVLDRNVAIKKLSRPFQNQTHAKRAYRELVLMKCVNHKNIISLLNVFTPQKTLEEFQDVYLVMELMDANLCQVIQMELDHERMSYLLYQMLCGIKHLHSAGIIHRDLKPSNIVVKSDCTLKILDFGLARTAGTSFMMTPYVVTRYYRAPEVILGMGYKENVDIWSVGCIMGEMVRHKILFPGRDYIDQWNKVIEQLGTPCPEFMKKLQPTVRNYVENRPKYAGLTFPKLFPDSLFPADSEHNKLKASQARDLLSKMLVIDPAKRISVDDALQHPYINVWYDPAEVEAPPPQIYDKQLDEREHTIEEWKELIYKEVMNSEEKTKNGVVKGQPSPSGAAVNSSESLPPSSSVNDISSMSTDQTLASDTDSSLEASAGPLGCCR

[25] = tested on: Mast/stem cell growth factor receptor Kit (Homo sapiens), P10721 [A829P]; conditions: Compound concentration 1000.0 nM
[26] = molecular target: LIM domain kinase 2 (Homo sapiens) (UniProt P53671); conditions: Compound concentration 1000.0 nM
[27] = molecular target: Mitogen-activated protein kinase kinase kinase 15 (Homo sapiens) (UniProt Q6ZN16); conditions: Compound concentration 1000.0 nM
[28] = molecular target: Mitogen-activated protein kinase kinase kinase 11 (Homo sapiens) (UniProt Q16584); conditions: Compound concentration 1000.0 nM
[29] = molecular target: Serine/threonine-protein kinase Nek11 (Homo sapiens) (UniProt Q8NG66); conditions: Compound concentration 1000.0 nM
Serine/threonine-protein kinase Nek11 (Homo sapiens), sequence (Q8NG66 whole entry): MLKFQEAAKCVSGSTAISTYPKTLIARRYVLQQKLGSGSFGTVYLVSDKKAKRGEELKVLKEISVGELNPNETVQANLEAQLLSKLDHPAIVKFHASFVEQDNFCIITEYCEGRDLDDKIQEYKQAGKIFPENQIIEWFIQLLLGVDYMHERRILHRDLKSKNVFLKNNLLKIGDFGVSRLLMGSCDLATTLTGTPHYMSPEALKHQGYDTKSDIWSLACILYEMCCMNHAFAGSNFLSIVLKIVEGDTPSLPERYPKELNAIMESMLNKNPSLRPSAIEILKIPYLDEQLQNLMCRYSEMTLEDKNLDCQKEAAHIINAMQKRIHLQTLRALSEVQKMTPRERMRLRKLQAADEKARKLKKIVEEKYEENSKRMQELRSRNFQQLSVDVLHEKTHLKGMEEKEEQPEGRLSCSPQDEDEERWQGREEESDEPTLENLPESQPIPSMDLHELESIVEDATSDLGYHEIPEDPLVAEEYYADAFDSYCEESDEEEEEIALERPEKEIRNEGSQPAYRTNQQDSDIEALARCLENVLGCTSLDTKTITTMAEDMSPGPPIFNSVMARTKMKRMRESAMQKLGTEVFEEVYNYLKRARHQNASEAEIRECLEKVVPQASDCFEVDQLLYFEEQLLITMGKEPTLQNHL

[30] = molecular target: Serine/threonine-protein kinase OSR1 (Homo sapiens) (UniProt O95747); conditions: Compound concentration 1000.0 nM
[31] = molecular target: Platelet-derived growth factor receptor beta (Homo sapiens) (UniProt P09619); conditions: Compound concentration 1000.0 nM
[32] = molecular target: Serine/threonine-protein kinase pim-3 (Homo sapiens) (UniProt Q86V86); conditions: Compound concentration 1000.0 nM
[33] = molecular target: Phosphatidylinositol 4-phosphate 5-kinase type-1 gamma (Homo sapiens) (UniProt O60331); conditions: Compound concentration 1000.0 nM
[34] = molecular target: cAMP-dependent protein kinase catalytic subunit beta (Homo sapiens) (UniProt P22694); conditions: Compound concentration 1000.0 nM
[35] = molecular target: Protein kinase C eta type (Homo sapiens) (UniProt P24723); conditions: Compound concentration 1000.0 nM
[36] = molecular target: Protein-tyrosine kinase 2-beta (Homo sapiens) (UniProt Q14289); conditions: Compound concentration 1000.0 nM
[37] = molecular target: RAF proto-oncogene serine/threonine-protein kinase (Homo sapiens) (UniProt P04049); conditions: Compound concentration 1000.0 nM
[38] = molecular target: Serine/threonine-protein kinase RIO1 (Homo sapiens) (UniProt Q9BRS2); conditions: Compound concentration 1000.0 nM
[39] = molecular target: Ribosomal protein S6 kinase beta-1 (Homo sapiens) (UniProt P23443); conditions: Compound concentration 1000.0 nM
Ribosomal protein S6 kinase beta-1 (Homo sapiens), sequence (P23443 whole entry, looked up): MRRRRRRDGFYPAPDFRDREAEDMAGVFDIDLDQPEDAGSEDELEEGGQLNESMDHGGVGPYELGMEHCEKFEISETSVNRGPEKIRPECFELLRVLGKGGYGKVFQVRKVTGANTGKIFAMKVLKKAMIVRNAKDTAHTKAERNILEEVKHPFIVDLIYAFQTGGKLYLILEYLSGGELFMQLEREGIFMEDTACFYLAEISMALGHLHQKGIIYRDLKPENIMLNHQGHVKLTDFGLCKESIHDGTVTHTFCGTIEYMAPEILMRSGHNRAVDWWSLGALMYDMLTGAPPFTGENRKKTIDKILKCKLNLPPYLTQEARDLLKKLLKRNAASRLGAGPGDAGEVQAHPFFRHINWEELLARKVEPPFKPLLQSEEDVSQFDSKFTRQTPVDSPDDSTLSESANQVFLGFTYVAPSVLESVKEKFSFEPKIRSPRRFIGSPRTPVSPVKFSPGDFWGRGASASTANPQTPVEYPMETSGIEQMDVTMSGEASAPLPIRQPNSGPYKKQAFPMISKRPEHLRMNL

[40] = molecular target: Uncharacterized serine/threonine-protein kinase SBK3 (Homo sapiens) (UniProt P0C264); conditions: Compound concentration 1000.0 nM
[41] = molecular target: Angiopoietin-1 receptor (Homo sapiens) (UniProt Q02763); conditions: Compound concentration 1000.0 nM
Angiopoietin-1 receptor (Homo sapiens), sequence (Q02763 whole entry): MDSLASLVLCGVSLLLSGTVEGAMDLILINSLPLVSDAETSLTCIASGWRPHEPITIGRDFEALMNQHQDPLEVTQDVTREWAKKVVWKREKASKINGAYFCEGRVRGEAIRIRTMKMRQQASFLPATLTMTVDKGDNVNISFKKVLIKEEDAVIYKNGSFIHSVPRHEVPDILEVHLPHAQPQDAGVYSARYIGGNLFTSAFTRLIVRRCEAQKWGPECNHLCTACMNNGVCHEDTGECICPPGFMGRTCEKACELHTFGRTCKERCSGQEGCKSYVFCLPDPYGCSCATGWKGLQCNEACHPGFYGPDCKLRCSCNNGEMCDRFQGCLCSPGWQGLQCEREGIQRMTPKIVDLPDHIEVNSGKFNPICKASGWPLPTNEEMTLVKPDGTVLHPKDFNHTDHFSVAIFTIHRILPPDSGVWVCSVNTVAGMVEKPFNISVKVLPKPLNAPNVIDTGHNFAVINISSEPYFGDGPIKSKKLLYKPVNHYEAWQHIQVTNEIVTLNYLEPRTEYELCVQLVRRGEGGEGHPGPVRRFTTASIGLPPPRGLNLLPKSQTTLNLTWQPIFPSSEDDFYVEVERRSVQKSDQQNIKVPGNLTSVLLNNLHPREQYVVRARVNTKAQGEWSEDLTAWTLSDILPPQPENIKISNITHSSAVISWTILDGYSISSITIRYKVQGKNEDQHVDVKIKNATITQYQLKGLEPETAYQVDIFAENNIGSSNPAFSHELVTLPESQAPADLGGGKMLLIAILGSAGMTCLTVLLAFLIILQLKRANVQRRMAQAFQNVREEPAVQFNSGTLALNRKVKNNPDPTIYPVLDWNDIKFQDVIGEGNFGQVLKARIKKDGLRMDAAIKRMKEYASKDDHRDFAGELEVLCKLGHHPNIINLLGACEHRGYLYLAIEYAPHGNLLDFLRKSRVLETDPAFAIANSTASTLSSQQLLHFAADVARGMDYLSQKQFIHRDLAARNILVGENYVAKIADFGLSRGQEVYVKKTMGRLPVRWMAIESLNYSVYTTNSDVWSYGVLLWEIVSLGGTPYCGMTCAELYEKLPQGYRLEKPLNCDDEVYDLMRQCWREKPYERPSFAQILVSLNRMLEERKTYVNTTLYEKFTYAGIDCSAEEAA

[42] = molecular target: Dual specificity protein kinase TTK (Homo sapiens) (UniProt P33981); conditions: Compound concentration 1000.0 nM
[43] = molecular target: Sodium-dependent noradrenaline transporter (Homo sapiens) (UniProt P23975); conditions: Compound concentration 10.0 uM
Sodium-dependent noradrenaline transporter (Homo sapiens), sequence (P23975 whole entry): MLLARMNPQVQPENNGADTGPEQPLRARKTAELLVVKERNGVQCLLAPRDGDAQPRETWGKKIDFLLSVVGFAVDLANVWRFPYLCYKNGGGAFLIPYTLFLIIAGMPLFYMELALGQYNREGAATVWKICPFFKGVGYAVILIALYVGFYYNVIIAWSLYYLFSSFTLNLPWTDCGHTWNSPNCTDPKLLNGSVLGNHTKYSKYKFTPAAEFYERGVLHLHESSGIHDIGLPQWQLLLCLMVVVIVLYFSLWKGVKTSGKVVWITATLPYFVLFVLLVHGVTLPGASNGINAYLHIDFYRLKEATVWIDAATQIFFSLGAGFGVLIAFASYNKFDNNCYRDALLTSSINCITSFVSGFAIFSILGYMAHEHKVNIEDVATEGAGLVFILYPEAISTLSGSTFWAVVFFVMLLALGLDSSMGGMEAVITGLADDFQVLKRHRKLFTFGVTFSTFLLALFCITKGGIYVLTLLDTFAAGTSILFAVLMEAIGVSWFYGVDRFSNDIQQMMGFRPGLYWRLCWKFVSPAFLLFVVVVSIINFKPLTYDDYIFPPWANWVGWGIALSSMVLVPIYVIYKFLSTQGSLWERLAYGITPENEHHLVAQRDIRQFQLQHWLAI

[44] = molecular target: Muscarinic acetylcholine receptor M2 (Homo sapiens) (UniProt P08172); conditions: Compound concentration 10.0 uM
[45] = molecular target: Beta-3 adrenergic receptor (Homo sapiens) (UniProt P13945); conditions: Compound concentration 10.0 uM

COc1cccc(CNC(=O)c2nc3scc(COCc4ccc(C(=O)O)cc4)c3c(=O)[nH]2)c1 [T-26c]
Ki (Histamine H1 receptor): 98 nM
residual activity [1]: 86.4%
residual activity [2]: 84.8%
residual activity [3]: 97.8%
residual activity [4]: 71.3%
residual activity [5]: 71.8%
residual activity [6]: 88.2%
residual activity [7]: 70.7%
residual activity [8]: 100%
residual activity [9]: 100%
residual activity [10]: 100%
residual activity [11]: 99.2%
residual activity [12]: 95.6%
residual activity [13]: 96.6%
residual activity [14]: 85.4%
residual activity [15]: 94.4%
residual activity [16]: 74%
residual activity [17]: 77.8%
residual activity [18]: 98.5%
residual activity [19]: 100%
residual activity [20]: 99.6%
residual activity [21]: 50.1%
residual activity [22]: 72.5%
residual activity [23]: 85%
residual activity [24]: 76.6%
residual activity [25]: 69.2%
residual activity [26]: 96.2%
residual activity [27]: 100%
residual activity [28]: 100%
residual activity [29]: 65.6%
residual activity [30]: 71.9%
residual activity [31]: 99%
residual activity [32]: 100%
residual activity [33]: 63.7%
residual activity [34]: 91.1%
residual activity [35]: 83.7%
residual activity [36]: 85.3%
residual activity [37]: 85.6%
residual activity [38]: 52.1%
residual activity [39]: 96.1%
residual activity [40]: 100%
residual activity [41]: 100%
residual activity [42]: 92.8%
inhibition [43]: 12.6%
inhibition [44]: -2.95%
inhibition [45]: 7.44%
